The values that follow come from patent US10202371B2, “Oxazolidin-2-one-pyrimidine derivatives and the use thereof as phosphatidylinositol-3-kinase inhibitors” (Novartis AG, priority 2012, dated 2019).

Data set [1] can be described thus: Photostability in light stability chamber. It is filed as physicochemical. The settings on record: 1.0 mg/ml in ethanol, 19620 kJ/m^2 over 13 h, 15° C., UPLC 254 nm. On the procedure: Samples investigated for light stability were treated in a light stability chamber (Atlas CPS+, Serial Number 0704013). Solutions of 1.0 mg/ml in ethanol were prepared for each molecule and aliquots of 0.5 mL were dispensed into suitable micro tubes. All measurements were done in duplicate and compared to a reference wrapped in aluminium foil during light exposure. Solutions were exposed to 19620 kJ/m^2 over 13 h. Samples were kept at 15° C. during the experiment. […] The peak areas were automatically integrated, and the degradation percentage calculated as the difference between the corresponding peak area percentage of the reference sample and the average peak area percentage of the exposed samples (duplicate).

The target of a further data set is human PI3Kβ (Homo sapiens (Human), UniProt P42338). Nature of the data set: Biochemical assay PI3Kbeta (KinaseGlo luminescence). The following applies: 1 μM ATP, read-out: PI3Kb/IC50. The text has this:
Cancer Ther. accepted). […] (L-alpha-phosphatidylinositol (PI), Liver, Bovine) were obtained from Avanti Polar Lipid (Cat. […] (Avanti, Cat. No. 840046X) or L-α-phosphatidylinositol (PI) was obtained from Avanti Polar Lipid (Cat. […] Luminescence is a well established readout to determine ATP concentrations and can thus be used to follow the activity of many kinases regardless of their substrate. The Kinase Glo Luminescent Kinase Assay (Promega, Madison/WI, USA) is a homogeneous HTS method of measuring kinase activity by quantifying the amount of ATP remaining in solution following a kinase reaction. 50 nL of compound dilutions were dispensed onto black 384-well low volume Non Binding Styrene (NBS) plates (Costar Cat. No. […] L-α-phosphatidylinositol (PI), provided as 10 mg/ml solution in methanol, was transferred into a glass tube and dried under nitrogen beam. […] NVP-BGT226 was used as a reference compound and included in all assay plates in the form of 16 dilution points in duplicate. […] All fits were performed with the program XLfit4 (ID Business Solutions, Guildford, UK).
For orientation: Kinase-Glo measures the ATP left after a reaction by luminescence.

The target in data set [2] is human PI3Kbeta p110 catalytic subunit (Rat-1 cells) (Homo sapiens (Human), UniProt P42338). Nature of the data set: Cellular assay PI3Kbeta, p-Akt(S473) SureFire in Rat-1_PI3Kbeta cells. It is filed as cell-based. The following applies: p-AKT(Ser473), 1 h treatment; read-out: Rat1-PI3Kb/IC50. The source says: AlphaScreen (Amplified Luminescent Proximity Homogeneous Assay, ALPHA, Perkin Elmer) is a non-radioactive bead-based proximity assay technology to study biomolecular interactions in a homogenous microtiter plate format. The brand name SureFire denotes AlphaScreen assays that are adapted to quantify the phosphorylation of endogenous cellular proteins in cell lysates, by using matched antibody pairs, which consist of an anti-phospho-kinase and an anti-kinase antibody. The assay allows characterization of kinase signaling in cells as well as measurement of kinase inhibitor effects. The AlphaScreen technology provides several advantages over standard assay techniques such as ELISA, as it avoids time-consuming washing procedures and reduces plate handling. Furthermore, it is miniaturizable at least to a 384-well format and provides sensitivity down to the femtomolar range, dependent on the affinity of the antibodies included in the individual AlphaScreen SureFire assay kit. High sensitivity is reached by an intrinsic amplification mechanism, which involves production of singlet oxygen molecules. SureFire assay kits are commercially available for specific targets and include pairs of validated antibodies (PerkinElmer). This report describes common procedures applied for AlphaScreen SureFire assays and respective semi-automated steps for routine kinase inhibitor profiling in cell-based assays.
The Rat-1 cell lines stably overexpressing activated PI3K class I isoforms Rat-1 pBABEpuro Myr-HA-hp110 delta (Rat-1_PI3Kdelta) and Rat-1 pBABEpuro Myr-HA-hp110alpha (Rat-1_PI3Kalpha) and Rat-1 pBABEpuro Myr-HA-hp110 beta (Rat-1_PI3beta) were prepared as described (Maira S M, Stauffer F, Brueggen J, Furet P, Schnell C, Fritsch C, Brachmann S, Chène P, de Pover A, Schoemaker K, Fabbro D, Gabriel D, Simonen M, Murphy L, Finan P, Sellers W, Garcia-Echeverria C (2008), Mol Cancer Ther. 7:1851-63 and Maira S M, Pecchi S, Brueggen J, Huh K, Schnell C, Fritsch C, Nagel T, Wiesmann M, Brachmann S, Dorsch M, Chène P, Schoemaker K, De Pover A, Menezes D, Fabbro D, Sellers W, Garcia-Echeverria C, Voliva CF (2011), Mol. Cancer Ther., accepted). All cell lines were cultivated in complete growth medium (DMEM high glucose, 10% (v/v) fetal bovine serum, 1% (v/v) MEM NEAA, 10 mM HEPES, 2 mM L-glutamine, puromycin (10 μg/mL for Rat-1_PI3Kdelta and Rat-1_PI3Kalpha, 4 ug/mL for Rat-1_PI3beta), 1% (v/v) Pen/Strep) to 90% confluency at 37° C./5% CO2/90% humidity in a humidified CO2 incubator and were split twice a week. […]

A short description of data set [3]: In vitro skin penetration and permeation, pig skin in Franz-type diffusion cells. It is filed as in vitro ADME. The following applies: for Permeation rate: pig skin, 48 hours exposure. On the procedure:
The compound was applied as 0.5% solutions in propylene glycol mixed with either ethanol or oleylalcohol to pig skin mounted in static Franz-type diffusion cells. At the end of a 48 hours exposure time, drug concentrations were measured in the skin (after removal of stratum corneum) and in the receiver. The receiver solution is a mixture of two volume parts of phosphate-buffered saline (PBS) and one volume part of fetal calf serum (FCS).

pIC50: −log10 of the molar value.

Chain of human PI3Kbeta p110 catalytic subunit (Rat-1 cells) (P42338 whole entry): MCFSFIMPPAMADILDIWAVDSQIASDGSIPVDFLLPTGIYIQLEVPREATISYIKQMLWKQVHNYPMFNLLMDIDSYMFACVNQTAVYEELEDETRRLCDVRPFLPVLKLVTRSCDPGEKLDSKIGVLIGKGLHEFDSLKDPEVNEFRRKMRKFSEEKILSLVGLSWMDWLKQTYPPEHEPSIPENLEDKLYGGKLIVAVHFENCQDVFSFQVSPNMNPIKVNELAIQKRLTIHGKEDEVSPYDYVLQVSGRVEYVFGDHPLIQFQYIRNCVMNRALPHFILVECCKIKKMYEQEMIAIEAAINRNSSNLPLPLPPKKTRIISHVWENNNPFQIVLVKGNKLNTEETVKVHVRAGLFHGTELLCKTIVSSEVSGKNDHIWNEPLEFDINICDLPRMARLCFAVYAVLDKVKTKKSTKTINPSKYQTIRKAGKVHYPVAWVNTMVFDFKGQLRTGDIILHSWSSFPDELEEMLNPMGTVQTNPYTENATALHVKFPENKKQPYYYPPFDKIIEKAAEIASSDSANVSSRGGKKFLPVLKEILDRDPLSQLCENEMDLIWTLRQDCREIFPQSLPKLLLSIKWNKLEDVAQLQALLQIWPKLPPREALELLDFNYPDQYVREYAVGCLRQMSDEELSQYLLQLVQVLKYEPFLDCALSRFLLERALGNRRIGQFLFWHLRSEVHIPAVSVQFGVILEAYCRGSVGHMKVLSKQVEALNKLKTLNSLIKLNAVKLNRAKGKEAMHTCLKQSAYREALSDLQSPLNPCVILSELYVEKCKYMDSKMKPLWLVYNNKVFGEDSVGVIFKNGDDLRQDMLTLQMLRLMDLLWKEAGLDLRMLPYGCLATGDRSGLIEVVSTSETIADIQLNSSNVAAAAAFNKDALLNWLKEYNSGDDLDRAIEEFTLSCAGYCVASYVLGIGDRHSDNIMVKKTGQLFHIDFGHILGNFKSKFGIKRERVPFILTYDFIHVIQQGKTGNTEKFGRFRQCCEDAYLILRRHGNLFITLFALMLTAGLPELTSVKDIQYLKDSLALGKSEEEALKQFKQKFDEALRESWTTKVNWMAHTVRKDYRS
Chain of human PI3Kbeta p110 catalytic subunit (Rat-1 cells) (Q63787 whole entry partner): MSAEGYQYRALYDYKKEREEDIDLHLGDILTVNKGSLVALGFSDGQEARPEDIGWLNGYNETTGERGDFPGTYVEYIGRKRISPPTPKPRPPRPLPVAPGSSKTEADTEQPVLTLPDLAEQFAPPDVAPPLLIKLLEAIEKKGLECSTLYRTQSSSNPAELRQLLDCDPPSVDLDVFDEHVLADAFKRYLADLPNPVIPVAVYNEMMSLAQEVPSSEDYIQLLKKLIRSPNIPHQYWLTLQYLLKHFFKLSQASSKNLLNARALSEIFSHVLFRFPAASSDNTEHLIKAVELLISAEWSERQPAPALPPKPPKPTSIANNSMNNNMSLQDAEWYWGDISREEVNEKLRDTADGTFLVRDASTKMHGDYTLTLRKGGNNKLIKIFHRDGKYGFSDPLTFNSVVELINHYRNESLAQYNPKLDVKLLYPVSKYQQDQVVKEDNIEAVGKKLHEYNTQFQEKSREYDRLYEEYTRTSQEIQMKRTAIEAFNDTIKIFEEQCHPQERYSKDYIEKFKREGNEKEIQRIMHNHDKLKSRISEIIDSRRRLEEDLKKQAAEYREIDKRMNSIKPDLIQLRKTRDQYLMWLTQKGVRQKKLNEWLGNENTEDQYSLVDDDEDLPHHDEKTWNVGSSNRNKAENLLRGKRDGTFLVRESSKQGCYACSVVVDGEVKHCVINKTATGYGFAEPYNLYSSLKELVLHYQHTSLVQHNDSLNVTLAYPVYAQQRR
Chain of human PI3Kβ (P42338 2-1070): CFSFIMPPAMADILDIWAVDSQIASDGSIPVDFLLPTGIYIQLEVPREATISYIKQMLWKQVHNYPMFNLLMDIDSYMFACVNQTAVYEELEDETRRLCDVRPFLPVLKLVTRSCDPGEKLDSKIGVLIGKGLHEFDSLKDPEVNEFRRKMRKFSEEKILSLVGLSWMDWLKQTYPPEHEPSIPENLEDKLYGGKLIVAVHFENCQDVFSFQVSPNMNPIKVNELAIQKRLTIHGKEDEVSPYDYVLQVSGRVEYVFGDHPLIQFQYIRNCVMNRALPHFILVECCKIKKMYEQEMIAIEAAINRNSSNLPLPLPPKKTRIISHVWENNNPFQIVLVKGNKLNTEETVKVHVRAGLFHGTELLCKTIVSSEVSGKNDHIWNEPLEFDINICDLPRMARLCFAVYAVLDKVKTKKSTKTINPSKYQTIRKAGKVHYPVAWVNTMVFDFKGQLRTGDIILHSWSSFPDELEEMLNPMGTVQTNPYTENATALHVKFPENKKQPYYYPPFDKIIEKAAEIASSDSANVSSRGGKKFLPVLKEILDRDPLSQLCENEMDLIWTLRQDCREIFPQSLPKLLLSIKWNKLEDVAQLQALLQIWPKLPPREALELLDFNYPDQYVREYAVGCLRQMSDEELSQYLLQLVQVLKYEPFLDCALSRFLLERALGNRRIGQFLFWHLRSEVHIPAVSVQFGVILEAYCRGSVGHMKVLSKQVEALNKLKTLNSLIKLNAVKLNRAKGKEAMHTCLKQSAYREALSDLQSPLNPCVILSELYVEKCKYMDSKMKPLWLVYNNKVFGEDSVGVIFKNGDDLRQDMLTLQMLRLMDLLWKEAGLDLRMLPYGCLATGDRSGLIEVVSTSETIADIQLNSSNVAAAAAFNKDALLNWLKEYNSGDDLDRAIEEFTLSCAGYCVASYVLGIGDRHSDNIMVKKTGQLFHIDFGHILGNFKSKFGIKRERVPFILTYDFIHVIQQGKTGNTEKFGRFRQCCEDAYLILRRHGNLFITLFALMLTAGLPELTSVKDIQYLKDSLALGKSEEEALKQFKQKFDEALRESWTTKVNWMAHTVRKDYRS

With `CC[C@H]1[C@H](c2ccc(OC)cc2)OC(=O)N1c1cc(-c2cnc(N)nc2C(F)(F)F)nc(N2CCOCC2)n1` (relative stereo) [Example 2, (4S*,5S*)-3-(2′-amino-2-morpholino-4′-(trifluoromethyl)-[4,5′-bipyrimidin]-6-yl)-4-ethyl-5-(4-methoxyphenyl)oxazolidin-2-one], the “% degradation in photostability assay (average)” value (“% degradation” for short) in data set [1] stood at 3%. Further, the pIC50 at human PI3Kβ was 7.02; in data set [2], 6.12.

On to `C[C@H]1[C@H](c2nccs2)OC(=O)N1c1cc(-c2cnc(N)nc2C(F)(F)F)nc(N2CCOCC2)n1` [Example 1, (4S,5R)-3-(2′-Amino-2-morpholin-4-yl-4′-trifluoromethyl-[4,5′]bipyrimidinyl-6-yl)-4-methyl-5-thiazol-2-yl-oxazolidin-2-one], for which the “permeation rate through pig skin (in words)” value in data set [3] (pig skin in vitro) is listed as “low”. In addition, the Permeation rate in data set [3] (0.5% in PG + ethanol (7 + 3)) came out at 1.0 ± 0.3 ng/cm^2/hr; in data set [3] (0.5% in PG/OA (9 + 1)) it was 301.1 ± 129.5 ng/cm^2/hr. The “% degradation” value in data set [1] came to 8%. Moreover, the pIC50 on human PI3Kβ was 8.05.

`COc1ccc([C@@H]2OC(=O)N(c3cc(-c4cnc(N)nc4C(F)(F)F)nc(N4CCOCC4)n3)[C@H]2CO)cc1` [Example 3, (4S,5S)-3-(2′-Amino-2-morpholino-4′-(trifluoromethyl)-[4,5′-bipyrimidin]-6-yl)-4-(hydroxymethyl)-5-(4-methoxyphenyl)oxazolidin-2-one]: the “% degradation” value in data set [1] stood at 3%. Besides, the figures for the pIC50 (on human PI3Kβ; in data set [2]) were 8.15 and 7.48, respectively.

With `C[C@H]1[C@H](c2ccccc2)OC(=O)N1c1cc(-c2cnc(N)nc2C(F)(F)F)nc(N2CCOCC2)n1` [Example 5], the “% degradation” value in data set [1] is 17%.

Regarding `CCC1C(c2cccnc2)OC(=O)N1c1cc(-c2cnc(N)nc2C(F)(F)F)nc(N2CCOCC2)n1` (centres unmarked) [Example 8], the results for the pIC50 (on human PI3Kβ; in data set [2]) were 7.17 and 7.59, respectively.

Take `Nc1ncc(-c2cc(N3C(=O)O[C@@H](c4ccccc4)[C@@H]3CO)nc(N3CCOCC3)n2)c(C(F)(F)F)n1` [Example 10]: the “% degradation” value in data set [1] is 7%. Besides, the pIC50 on human PI3Kβ is 8.30; in data set [2] it was 7.64.

Take `C[C@H]1[C@@H](c2nccs2)OC(=O)N1c1cc(-c2cnc(N)nc2C(F)(F)F)nc(N2CCOCC2)n1` [Example 11]: the values for the pIC50 (at human PI3Kβ; in data set [2]) were 8.00 and 7.59, respectively.

With `COCCOc1ccc([C@@H]2OC(=O)N(c3cc(-c4cnc(N)nc4C(F)(F)F)nc(N4CCOCC4)n3)[C@H]2CO)cc1` [Example 12], the “% degradation” value in data set [1] is recorded as 12%.

In the case of `Nc1ncc(-c2cc(N3C(=O)O[C@@H](c4ccc(OCCO)cc4)[C@@H]3CO)nc(N3CCOCC3)n2)c(C(F)(F)F)n1` [Example 13], the “% degradation” value in data set [1] is 4%. Moreover, at human PI3Kβ, the pIC50 is 7.96.

Take `Nc1ncc(-c2cc(N3C(=O)O[C@@H](c4ccc(OCCCO)cc4)[C@@H]3CO)nc(N3CCOCC3)n2)c(C(F)(F)F)n1` [Example 14]: the “% degradation” value in data set [1] was 8%.
